From patent US10676471B2, “Cycloalkyl-linked diheterocycle derivatives” (Pfizer Inc., priority 2014, dated 2020)

Tested on: BT20 Cell
Test: Cancer Cell Lysate Total L-Glutamate Assay
Format: cell-based
Details: Homo sapiens, BT-20, 2 h, total L-glutamate in cell lysate, BT20 cells, 2 hour incubation with test compound
Protocol: Cancer Cell Lysate Total L-Glutamate Assay
Cancer cell lines (BT20, HCT116, SKOV3, HCC70, SUM149, MDA-MB-231, etc.) were plated in 96 well plates and were used for the total L-glutamate assay when the monolayer was ca. 80% confluent. The media was changed and fresh media containing L-glutamine was added to the 96 well plates, just before incubation of the cells with test compound. The test compound was diluted in 100% DMSO using a two-fold or three-fold serial dilution. Small volumes of the dilutions of test compound were added to the 96 well plates so the final DMSO concentration was 0.5% v/v in the cell culture medium. The cells were incubated at 37° C., 5% CO2, and 95% air for 2 hours. Following the 2 hour incubation, the cells were washed with water 2 times. After the last water wash, 100 μL of 50 mM Tris-HCl pH 7.4 and 0.01% Tween-20 was added to each well and the plate was frozen at −80° C. The 96 well plate was frozen and thawed a total of 3 times and then sonicated for 5 min at 4° C. in a bath sonicator. Following sonication, the 96 well plate was centrifuged for 5 min at 1000 rpm and 10 μL of the supernatant was transferred to a 384 well assay plate.
Total L-glutamate (L-glutamic acid) in the cell lysis supernatant was detected using glutamate oxidase, horseradish peroxidase and Amplex Red reagent (10-acetyl-3,7-dihydroxy phenoxazine, Invitrogen # A22177). In this assay, L-glutamate was oxidized by glutamate oxidase to produce alpha-ketoglutarate (2-oxopentane dioic acid), NH3 and H202. The H2O2 (hydrogen peroxide) was used by horseradish peroxidase (HRP) to oxidize the Amplex Red Reagent to resorufin which is a fluorescent molecule. When resorufin is excited with light with a wavelength 530-560 nm, it emits light at approximately 585 nm. For detection of total L-glutamate in 10 μL of lysate, 15 μL of an enzyme mixture was added to each well of the 384 well assay plate. The enzyme mixture consisted of 50 mM Tris-HCl pH 7.4, 0.01% Tween-20, 50 μM Amplex Red reagent (final concentration), 0.04 U/mL L-glutamate oxidase (final concentration), and 0.125 U/mL HRP (final concentration). The 384 well assay plate was incubated at room temperature for 5 min and then the fluorescence intensity of each well was measured at 585 nm using a 530-560 nm excitation wavelength in a plate based fluorimeter such as an LJL Analyst or a Tecan Infinite plate reader. Standard curves were constructed for this assay using dilutions of a L-glutamate standard. IC50 were calculated by plotting the relative fluorescent units vs log of the inhibitor concentration and fitting the data to the four parameter logistic equation.
Reference: Chapman J. and Zhou M. (1999) Microplate-based fluorometric methods for the enzymatic determination of I-glutamate: application in measuring I-glutamate in food samples. Analytica Chim Acta 402:47-52.

Structure (SMILES)	IC50
CC(=O)Nc1nnc(C[C@@H]2CC[C@H](c3nnc(NC(=O)Cc4ccccc4)s3)C2)s1 (single isomer, unassigned) [Example 44, N-{5-[(cis)-3-{[5-(acetylamino)-1,3,4-thiadiazol-2-yl]methyl}cyclopentyl]-1,3,4-thiadiazol-2-yl}-2-phenylacetamide]	5.5 nM
O=C(Cc1ccccn1)Nc1ccc([C@H]2C[C@H](Cc3nnc(NC(=O)Cc4ccccn4)s3)C2)nn1 (single isomer, unassigned) [Example 123, 2-(pyridin-2-yl)-N-{5-[(trans-3-{6-[(pyridin-2-ylacetyl)amino]pyridazin-3-yl}cyclobutyl)methyl]-1,3,4-thiadiazol-2-yl}acetamide]	1.8 nM
O=C(Cc1ccccn1)Nc1nnc(C[C@H]2C[C@@H](c3nnc(NC(=O)Cc4ccccn4)s3)C2)s1 (single isomer, unassigned) [Example 22, 2-(pyridin-2-yl)-N-{5-[(cis-3-{5-[(pyridin-2-ylacetyl)amino]-1,3,4-thiadiazol-2-yl}cyclobutyl)methyl]-1,3,4-thiadiazol-2-yl}acetamide]	1.4 nM
Cc1ccc(CC(=O)Nc2nnc(C[C@H]3C[C@@H](c4nnc(NC(=O)Cc5ccccn5)s4)C3)s2)nc1 (single isomer, unassigned) [Example 111, 2-(5-methylpyridin-2-yl)-N-{5-[(cis-3-{5-[(pyridin-2-ylacetyl)amino]-1,3,4-thiadiazol-2-yl}cyclobutyl)methyl]-1,3,4-thiadiazol-2-yl}acetamide]	1.2 nM
CCNc1nnc(C2CCC(Cc3nnc(NC(C)=O)s3)C2)s1 (racemic) [Example 66, (rac)-N-[5-({(cis)-3-[5-(ethylamino)-1,3,4-thiadiazol-2-yl]cyclopentyl}methyl)-1,3,4-thiadiazol-2-yl]acetamide]	1290 nM
CC(=O)Nc1nnc(C2CCC(C)(c3nnc(NC(C)=O)s3)C2(C)C)s1 (racemic) [Example 60, N,N′-{[-1,2,2-trimethylcyclopentane-1,3-diyl]di-1,3,4-thiadiazole-5,2-diyl}diacetamide]	274 nM
CC(=O)Nc1nnc(C[C@H]2C[C@H](c3nnc(NC(C)=O)s3)C2)s1 (single isomer, unassigned) [Example 63, N-[5-({trans-3-[5-(acetylamino)-1,3,4-thiadiazol-2-yl]cyclobutyl}methyl)-1,3,4-thiadiazol-2-yl]acetamide]	110 nM
CC(=O)Nc1nnc(C[C@@H]2CC[C@H](c3nnc(NC(=O)Cc4ccccn4)s3)C2)s1 (single isomer, unassigned) [Example 57, N-{5-[(cis)-3-{[5-(acetylamino)-1,3,4-thiadiazol-2-yl]methyl}cyclopentyl]-1,3,4-thiadiazol-2-yl}-2-(pyridin-2-yl)acetamide]	21.4 nM
Cn1cnc(C(=O)Nc2nnc(C[C@H]3CC[C@@H](c4nnc(NC(=O)Cc5ccccn5)s4)C3)s2)c1 (racemic) [Example 150, (rac)-1-methyl-N-(5-{[(cis)-3-{5-[(pyridin-2-ylacetyl)amino]-1,3,4-thiadiazol-2-yl}cyclopentyl]methyl}-1,3,4-thiadiazol-2-yl)-1H-imidazole-4-carboxamide]	1.5 nM
CCC(=O)Nc1nnc(C2CC3(C2)CC(c2nnc(NC(=O)CC)s2)C3)s1 (stereo not drawn) [Example 134, N,N′-(spiro[3.3]heptane-2,6-diyldi-1,3,4-thiadiazole-5,2-diyl)dipropanamide]	1.3 nM
CC(=O)Nc1nnc(C[C@@H]2CC[C@H](c3nnc(NC(=O)Cc4cncnc4)s3)C2)s1 (single isomer, unassigned) [Example 58, N-{5-[(cis)-3-{[5-(acetylamino)-1,3,4-thiadiazol-2-yl]methyl}cyclopentyl]-1,3,4-thiadiazol-2-yl}-2-(pyrimidin-5-yl)acetamide]	276 nM
CC(=O)Nc1nnc(C[C@H]2CC[C@@H](c3nnc(NC(C)=O)s3)C2)s1 (single isomer, unassigned) [Example 7]	3360 nM
CC(=O)Nc1nnc(C2CCC(Cc3nnc(NC(=O)Cc4cncnc4)s3)C2)s1 (racemic) [Example 49, (rac)-N-[(cis)-5-({3-[5-(acetylamino)-1,3,4-thiadiazol-2-yl]cyclopentyl}methyl)-1,3,4-thiadiazol-2-yl]-2-(pyrimidin-5-yl)acetamide]	789 nM
O=C(Cc1ccccn1)Nc1ccc(C[C@@H]2CC[C@H](c3nnc(NC(=O)c4ccccn4)s3)C2)nn1 (single isomer, unassigned) [Example 117, N-{5-[(cis)-3-({6-[(pyridin-2-ylacetyl)amino]pyridazin-3-yl}methyl)cyclopentyl]-1,3,4-thiadiazol-2-yl}pyridine-2-carboxamide]	1.4 nM
CC(=O)Nc1nnc(CC2CCC(c3nnc(NC(=O)c4ccccc4)s3)C2)s1 (racemic) [Example 48, (rac)-N-{5-[(cis)-3-{[5-(acetylamino)-1,3,4-thiadiazol-2-yl]methyl}cyclopentyl]-1,3,4-thiadiazol-2-yl}benzamide]	989 nM
CC(C)C(=O)Nc1nnc([C@H]2CC[C@@H](Cc3ccc(NC(=O)Cc4ccccn4)nn3)C2)s1 [Example 120, 2-methyl-N-{5-[(1S,3R)-3-({6-[(pyridin-2-ylacetyl)amino]pyridazin-3-yl}methyl)cyclopentyl]-1,3,4-thiadiazol-2-yl}propanamide]	0.4 nM
CC(=O)Nc1nnc(C2CCC(Cc3nnc(NC(=O)Cc4ccc(C)nc4)s3)C2)s1 (racemic) [Example 52, (rac)-N-[5-({(cis)-3-[5-(acetylamino)-1,3,4-thiadiazol-2-yl]cyclopentyl}methyl)-1,3,4-thiadiazol-2-yl]-2-(6-methylpyridin-3-yl)acetamide]	29.8 nM
CC(=O)Nc1nnc([C@H]2CC[C@@H](Cc3nnc(NC(=O)Cc4cncnc4)s3)C2)s1 (single isomer, unassigned) [Example 51, N-[5-({(cis)-3-[5-(acetylamino)-1,3,4-thiadiazol-2-yl]cyclopentyl}methyl)-1,3,4-thiadiazol-2-yl]-2-(pyrimidin-5-yl)acetamide]	64.5 nM
CC(=O)Nc1nnc([C@@H]2CC[C@H](Cc3nnc(NC(=O)Cc4ccn(C)n4)s3)C2)s1 (racemic) [Example 146, (rac)-N-[5-({(cis)-3-[5-(acetylamino)-1,3,4-thiadiazol-2-yl]cyclopentyl}methyl)-1,3,4-thiadiazol-2-yl]-2-(1-methyl-1H-pyrazol-3-yl)acetamide]	6.9 nM
CC(C)C(=O)Nc1ccc(CC2CCC(c3nnc(NC(=O)Cc4ccccn4)s3)C2)nn1 (racemic) [Example 76, (rac)-2-methyl-N-(6-{[(cis)-3-{5-[(pyridin-2-ylacetyl)amino]-1,3,4-thiadiazol-2-yl}cyclopentyl]methyl}pyridazin-3-yl)propanamide]	3 nM
O=C(Cc1ccccc1)Nc1ccc(C[C@H]2C[C@@H](c3nnc(NC(=O)Cc4ccccn4)s3)C2)nn1 (single isomer, unassigned) [Example 118, 2-phenyl-N-{6-[(cis-3-{5-[(pyridin-2-ylacetyl)amino]-1,3,4-thiadiazol-2-yl}cyclobutyl)methyl]pyridazin-3-yl}acetamide]	0.2 nM
CC(=O)Nc1nnc([C@@H]2CC[C@H](Cc3nnc(NC(=O)c4ccccc4F)s3)C2)s1 (racemic) [Example 148, (rac)-N-[5-({(cis)-3-[5-(acetylamino)-1,3,4-thiadiazol-2-yl]cyclopentyl}methyl)-1,3,4-thiadiazol-2-yl]-2-fluorobenzamide]	12.6 nM
CC(=O)Nc1nnc(C[C@H]2C[C@@H](c3nnc(NC(=O)Cc4ccc(C)cn4)s3)C2)s1 (single isomer, unassigned) [Example 107, N-[5-(cis-3-{[5-(acetylamino)-1,3,4-thiadiazol-2-yl]methyl}cyclobutyl)-1,3,4-thiadiazol-2-yl]-2-(5-methylpyridin-2-yl)acetamide]	10.1 nM
CC(=O)Nc1nnc(C[C@H]2C[C@@H](c3nnc(NC(C)=O)s3)C2)s1 (single isomer, unassigned) [Example 62, N-[5-({cis-3-[5-(acetylamino)-1,3,4-thiadiazol-2-yl]cyclobutyl}methyl)-1,3,4-thiadiazol-2-yl]acetamide]	38.5 nM
